Tested on: iHep cells
Assay: CYP metabolism assay, iHep cells incubated with substrate, metabolite by LC-MS/MS
Conditions: for 4′-OH-Diclotenac: mouse, 3 h
Description: To determine Alb secretion, TTFs transduced with three factors were cultured in the medium without phenol red. Culture supernatant was collected 24 h after medium change. The amount of Alb in the supernatant was determined by the mouse albumin ELISA kit (BETHYL LABORATORY) according to the manufacturer's instructions. […] The supernatants were collected for measurement of indicated productions by LC-MS/MS (AGILENT 1200 HPLC and ABI 4000 mass-spectrometer). Freshly isolated hepatocytes were used as a positive control. Total cell protein amount was used to normalize the data.
Metabolites of these chemicals were measured by liquid chromatography-tandem mass spectrometry (LC/MS/MS) according to each standard curve.

Compound	metabolism by iHep cells (iHep cells, P<0.05)	4′-OH-Diclotenac (12.5 μM)	4′-OH-Diclotenac (25 μM)	4′-OH-Diclotenac (50 μM)	4′-OH-Diclotenac (100 μM)
C[C@]12CC[C@H]3[C@@H](CCC4=CC(=O)CC[C@@]43C)[C@@H]1CC[C@@H]2O [Testosterone, testosterone]	metabolized	–	–	–	–
O=C(O)Cc1ccccc1Nc1c(Cl)cccc1Cl [Diclofenac, diclofenac]	–	0.0 pmol/min/mg protein	17.0 ± 8.0 pmol/min/mg protein	195.4 ± 16.0 pmol/min/mg protein	483.3 ± 60.1 pmol/min/mg protein
